Reference: patent US12544395B2, “Combination compositions comprising a beta-lactamase inhibitor and uses thereof” (priority 2018, dated 2026)

What was measured:
Format in all cases: cell-based
Conditions in all cases: with inhibitor at 4 μg/mL
E. coli ESBL 4 = test: Broth microdilution MIC (strain enzymes: CTX-M15, TEM-1)
K. pneumoniae KI (KCl) = test: Broth microdilution MIC (strain enzymes: TEM-10)
K. pneumoniae 115468 = test: Broth microdilution MIC (strain enzymes: TEM-1)
E. coli 3327 = test: Broth microdilution MIC (strain enzymes: TEM-1, SHV-12)
K. pneumoniae ESBL 8 #2 = test: Broth microdilution MIC (strain enzymes: SHV-12, TEM-1)
K. pneumoniae ESBL 7 #2 = test: Broth microdilution MIC (strain enzymes: SHV-12, CTX-M15, TEM-1)
K. pneumoniae BAA 1705 = test: Broth microdilution MIC (strain KPC-producing)
E. coli 2806 = test: Broth microdilution MIC (strain enzymes: SHV-12, TEM-1)
E. coli Si-FDL-GES = test: microbe, parasite or virus in culture
E. coli 25922 = test: Broth microdilution MIC (strain enzymes: None detected)
E. coli 3174 = test: Broth microdilution MIC (strain enzymes: TEM-1, CTXM-15)
K. pneumoniae KP 8 = test: Broth microdilution MIC (strain enzymes: TEM-10, TEM-1, CTX-M15)
E. coli SI-AIRT-4 = test: Broth microdilution MIC (strain enzymes: TEM-1)
K. oxytoca 169219 = test: Broth microdilution MIC (strain enzymes: TEM-1, CTXM-15)
[1] = test system: panel of ESBL-producing Enterobacteriaceae (40 strains); test: Broth microdilution MIC50/MIC90 summary over the panel
K. pneumoniae ESBL 7 #1 = test: Broth microdilution MIC (strain enzymes: SHV-12, TEM-1)
K. pneumoniae KP 3 = test: Broth microdilution MIC (strain enzymes: SHV-1, TEM-1)
K. pneumoniae SI-KP NO30 = test: Broth microdilution MIC (strain enzymes: TEM-26b, SHV-60, SHV-26)
E. coli ESBL 2 = test: Broth microdilution MIC (strain enzymes: TEM-1)

## O=C(O)[C@H]1/C(=C/CO)O[C@@H]2CC(=O)N21 [Clavulanic acid, clavulanic acid, reference compound]
E. coli ESBL 4
  MIC of cefalexin (LEX): 1 µg/mL
  MIC of cefdinir (CDR): 1 µg/mL
  MIC of cefixime (CFM): 1 µg/mL
  MIC of ceftibuten (CTB): 0.5 µg/mL
K. pneumoniae KI (KCl)
  MIC of cefalexin (LEX): 0.125 µg/mL
  MIC of cefdinir (CDR): 0.125 µg/mL
  MIC of cefixime (CFM): 0.125 µg/mL
  MIC of ceftibuten (CTB): 0.06 µg/mL
K. pneumoniae 115468
  MIC of cefalexin (LEX): 0.06 µg/mL
  MIC of cefdinir (CDR): 0.06 µg/mL
  MIC of cefixime (CFM): 0.125 µg/mL
  MIC of ceftibuten (CTB): 0.25 µg/mL
E. coli 3327
  MIC of cefalexin (LEX): 0.5 µg/mL
  MIC of cefdinir (CDR): 0.5 µg/mL
  MIC of cefixime (CFM): 2 µg/mL
  MIC of ceftibuten (CTB): 1 µg/mL
K. pneumoniae ESBL 8 #2
  MIC of cefalexin (LEX): 0.125 µg/mL
  MIC of cefdinir (CDR): 0.125 µg/mL
  MIC of cefixime (CFM): 0.03 µg/mL
  MIC of ceftibuten (CTB): 0.06 µg/mL
K. pneumoniae ESBL 7 #2
  MIC of cefalexin (LEX): >32 µg/mL
  MIC of cefdinir (CDR): >32 µg/mL
  MIC of cefixime (CFM): >32 µg/mL
  MIC of ceftibuten (CTB): >32 µg/mL
K. pneumoniae BAA 1705
  MIC of cefalexin (LEX): >32 µg/mL
  MIC of cefdinir (CDR): >32 µg/mL
  MIC of cefixime (CFM): >32 µg/mL
  MIC of ceftibuten (CTB): 8 µg/mL
E. coli 2806
  MIC of cefalexin (LEX): 0.25 µg/mL
  MIC of cefdinir (CDR): 0.25 µg/mL
  MIC of cefixime (CFM): 1 µg/mL
  MIC of ceftibuten (CTB): 0.25 µg/mL
E. coli Si-FDL-GES
  MIC of cefalexin (LEX): 1 µg/mL
  MIC of cefdinir (CDR): 1 µg/mL
  MIC of cefixime (CFM): 0.5 µg/mL
  MIC of ceftibuten (CTB): 0.25 µg/mL
E. coli 25922
  MIC of cefalexin (LEX): 0.25 µg/mL
  MIC of cefdinir (CDR): 0.25 µg/mL
  MIC of cefixime (CFM): 0.5 µg/mL
  MIC of ceftibuten (CTB): 0.5 µg/mL
E. coli 3174
  MIC of cefalexin (LEX): 0.25 µg/mL
  MIC of cefdinir (CDR): 0.25 µg/mL
  MIC of cefixime (CFM): 0.5 µg/mL
  MIC of ceftibuten (CTB): 0.5 µg/mL
K. pneumoniae KP 8
  MIC of cefalexin (LEX): 0.125 µg/mL
  MIC of cefdinir (CDR): 0.125 µg/mL
  MIC of cefixime (CFM): 0.06 µg/mL
  MIC of ceftibuten (CTB): 0.06 µg/mL
E. coli SI-AIRT-4
  MIC of cefalexin (LEX): 0.25 µg/mL
  MIC of cefdinir (CDR): 0.25 µg/mL
  MIC of cefixime (CFM): 0.25 µg/mL
  MIC of ceftibuten (CTB): 0.5 µg/mL
K. oxytoca 169219
  MIC of cefalexin (LEX): 0.25 µg/mL
  MIC of cefdinir (CDR): 0.25 µg/mL
  MIC of cefixime (CFM): 0.125 µg/mL
  MIC of ceftibuten (CTB): 0.0149 µg/mL
[1]
  Cefdinir MIC50: 0.5 µg/mL
  Cefdinir MIC90: 2 µg/mL
  Cefixime MIC50: 0.5 µg/mL
  Cefixime MIC90: 2 µg/mL
  Cefpodoxime MIC50: 0.5 µg/mL
  Cefpodoxime MIC90: 4 µg/mL
  Ceftibuten MIC50: 0.25 µg/mL
  Ceftibuten MIC90: 2 µg/mL
  Cephalexin MIC50: 16 µg/mL
  Cephalexin MIC90: 32 µg/mL
K. pneumoniae ESBL 7 #1
  MIC of cefalexin (LEX): 0.5 µg/mL
  MIC of cefdinir (CDR): 0.5 µg/mL
  MIC of cefixime (CFM): 0.25 µg/mL
  MIC of ceftibuten (CTB): 0.125 µg/mL
K. pneumoniae KP 3
  MIC of cefalexin (LEX): 1 µg/mL
  MIC of cefdinir (CDR): 1 µg/mL
  MIC of cefixime (CFM): 0.5 µg/mL
  MIC of ceftibuten (CTB): 0.125 µg/mL
K. pneumoniae SI-KP NO30
  MIC of cefalexin (LEX): 0.125 µg/mL
  MIC of cefdinir (CDR): 0.125 µg/mL
  MIC of cefixime (CFM): 0.06 µg/mL
  MIC of ceftibuten (CTB): 0.06 µg/mL
E. coli ESBL 2
  MIC of cefalexin (LEX): >32 µg/mL
  MIC of cefdinir (CDR): >32 µg/mL
  MIC of cefixime (CFM): 32 µg/mL
  MIC of ceftibuten (CTB): 4 µg/mL
